# Results as given in patent publication US7754720B2, “Pyridazine compound and use thereof” (priority 2006, dated 2010).
# Where two headings read alike, the source gives them in different places.
# Columns and labels:
# physchem = format: physicochemical; conditions: pH 6.4, fassif
# HCV replicon cells = test: In vitro combination study with IFN-α in replicon cells (MacSynergy); format: cell-based, hepatitis C virus; conditions: MacSynergy analysis
# Procedure: Pegylated interteron-α (PEG-IFN-α), in combination with ribavirin, represents the current standard of care for HCV-infected patients. In vitro combination studies of compound (1) and IFN-α were performed in replicon cells. Data was analyzed using the MacSynergy template developed by Prichard and Shipman.
# [1] = Phase-1 first-in-human trial, pharmacokinetics; conditions: in vivo
# Excerpt: (§1) A randomized, double-blind, placebo controlled trial was designed to evaluate the safety/tolerability, phamacokinetics and antiviral activity of single (in Part A) and multiple (in Part B) doses of Compound (1) (oleic acid solution, above) in subjects chronically infected with HCV genotype 1 (GT-1) without decompensated cirrhosis.
# (§2) In completed Part A, five successive cohorts of 6 subjects were randomized (5:1) to receive single ascending doses of Compound 1 (40, 120, 240, 240-with food, or 480 mg) or placebo. In ongoing Part B, four successive cohorts of 12 subjects are randomized (10:2) to receive multiple ascending doses of Compound 1 (40 mg BID, 120 mg BID, 240 mg QD, 240 mg BID) or placebo, over 8 days.
# [2] = Cytotoxicity, CellTiter-Glo Luminescence Cell Viability assay, SL3; conditions: human, SL3 cells (HCV replicon-containing)
# Procedure: (§3) Compound (1) was evaluated for its cytotoxicity in a variety of cell types including HCV replicon-containing cell lines (Huh-7, SL3 and MH4) and non-replicon-containing cell lines (HepG2, MT4), using a CellTiter-Glo Luminescence Cell Viability assay (Promega).
# [3] = Intrinsic and pH solubility profile; format: physicochemical
# [4] = test system: HCV 2a subgenomic replicon; test: HCV genotype 2a subgenomic replicon in Huh-7 cells, NS3 protease activity by time-resolved fluorescence; format: cell-based, hepatitis C virus; conditions: compared with genotypes 1a and 1b
# Procedure: (§4) The antiviral activity of compound (1) against HCV genotype 2a was tested in cells chronically infected with the genotype 2a virus as well as in cells replicating a subgenomic 2a replicon. Huh-7 cells containing chronically replicating HCV genotype 2a (J6/JFH-Rluc) virus or subgenomic replicons were cultured with compound (1) or 2′CMeA for 3 days in the absence of human serum albumin. After cultivation, the amount of luciferase in 2a-virus containing cells and HCV NS3 protease activity in the 2a replicon-containing cells was determined using Promega's luciferase assay and a novel time-resolved fluorescence assay, respectively.
# [5] = test system: HCV genotype 2a (J6/JFH-Rluc) virus; test: Huh-7 cells chronically infected with HCV genotype 2a reporter virus, luciferase assay; format: cell-based; conditions: Hepatitis C virus, Huh-7, 72 h, read-out: EC50, HCV-2a chronically infected cell culture model
# Procedure: as §4
# [6] = in vivo
# Excerpt: as §1, §2
# in vitro [7] = conditions: human
# Procedure: as §3
# HCV replicon = test: Anti-HCV replicon activity compared with prior art compound of formula (4); format: cell-based, hepatitis C virus
# Excerpt: The anti-HCV replicon activity of compound (1) was compared to that of a prior art (WO 05/063744) compound, the compound of formula (4)
# [8] = test system: HCV genotype 1b (Con-1/lucneo) replicon; test: microbe, parasite or virus in culture; format: cell-based; conditions: Hepatitis C virus
# Procedure: (§5) HCV genotype 1b (Con-1/lucneo) and 1a (H77/neo) replicon cells were incubated with serial dilutions of compound (1) 2′C-methyl adenosine (2′CMeA) or IFNα for 3 days in the absence or presence of 40 mg/mL human serum albumin (HSA).
# pKa = format: physicochemical; conditions: product of example 1b
# [9] = Cytotoxicity, CellTiter-Glo Luminescence Cell Viability assay, MH4; conditions: mouse, MH4 cells (HCV replicon-containing)
# Procedure: as §3
# log P = format: physicochemical; conditions: product of example 1b
# [10] = Cytotoxicity, CellTiter-Glo Luminescence Cell Viability assay, Huh-7 lucneo; conditions: human, Huh-7 lucneo cells (HCV replicon-containing)
# Procedure: as §3
# [11] = test system: HCV genotype 1a (H77/neo) replicon; test: HCV genotype 1a (H77/neo) replicon, quantitative real-time PCR assay; format: cell-based; conditions: Hepatitis C virus, 72 h, 3 days
# Procedure: as §5
# in vitro [12] = conditions: human; remark: listed apart in the source
# Procedure: as §3
compound,measurement,setting,value
"Fc1ccccc1-c1nc2ccn(Cc3ccc(-c4ccc(C(F)(F)F)cc4C(F)(F)F)nn3)cc-2n1 [Compound (1), 5-({6-[2,4-bis(trifluoromethyl)phenyl]pyridazin-3-yl}methyl)-2-(2-fluorophenyl)-5H-imidazo[4,5-c]pyridine]",solubility,physchem,19.1 µg/mL
same,interaction with IFN-α in combination,HCV replicon cells,additive interaction
same,half-life,[1],10 to 15 h
same,increase of systemic exposure with a high fat meal,[1],approximately 2 fold
same,CC50,[2],> 50000 nM
same,pH solubility profile at pH 7.3,"[3]; geometric mean (3 lots), pH 7.3",0.7 micrograms/ml
same,solubility,[3]; product of example 1b,0.7 µg/mL
same,activity against genotype 2a,[4],substantially less active
same,EC50,[5],2900 nM
same,Grade 3 or 4 treatment emergent laboratory abnormalities,[6]; human,no Grade 3 or 4 treatment emergent laboratory abnormalities
same,most common adverse event,[6],headache
same,serious or treatment-limiting adverse events,[6],no serious or treatment-limiting adverse events
same,severity of adverse events,[6],"All AEs were mild in severity, with the exception of one moderate headache"
same,tolerability of single doses,[6],well tolerated
same,CC50,in vitro [7],> 50000 nM
same,potency relative to the compound of formula (4),HCV replicon,about 330 times
same,EC50,"[8]; 72 h, read-out: EC50 HCV 1b-lucneo 40 mg/mL HSA, 3 days, presence of 40 mg/mL human serum albumin",11 nM
same,EC50,"[8]; 72 h, 3 days, absence of human serum albumin, read-out: EC50 HCV 1b-lucneo (subgenomic replicon)",0.6 nM
same,EC50,"[8]; Huh-7, read-out: EC50, Huh-7 cells replicating an HCV-1b subgenomic replicon",0.6 nM
same,EC50,[8]; read-out: EC50 in HCV-1b and HCV-1a replicons,0.62 to 3.6 nM
same,pKa,pKa,5.8
same,CC50,[9],> 50000 nM
same,logP,log P,2.8
same,CC50,[10],> 50000 nM
same,EC50,[11],3.6 nM
same,CC50,in vitro [12],> 50000 nM
